Laboratory results as given in patent US20250163074A1, “CDK Inhibitors And Their Use As Pharmaceuticals” (Prelude Therapeutics Incorporated, priority 2020, published 2025).

What was measured:
CDK4/Cyclin D1 = CDK4/Cyclin D1 (Homo sapiens (Human), UniProt P11802); assay: CDK4/CyclinD1 enzymatic activity assay (TR-FRET); type: biochemical; conditions: CDK4/CyclinD1 1 nM, ATP 2 mM, read-out: CDK4_D1 IC50
Procedure, shortened: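 Insect-cell CDK4/Cyclin D1 (1 nM) with ULight-4E-BP1 (100 nM) and 2 mM ATP in HEPES pH 7.4 buffer, preincubated 20 min with compound (9-dose, 3-fold dilutions); 10 mM MgCl2 started the reaction, run 60 min at 37 °C. EDTA/Eu-anti-phospho-4E-BP1 TR-FRET detection; IC50 from 4-parameter Hill fit.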

CDK6/Cyclin D1 = CDK6/Cyclin D1 (Homo sapiens (Human), UniProt Q00534); assay: CDK6/CyclinD1 enzymatic activity assay (TR-FRET); type: biochemical; conditions: CDK6/Cyclin D1 1 nM, ATP 250 μM, read-out: CDK6_D1 IC50
Procedure, shortened: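 Insect-cell-expressed CDK6/Cyclin D1 (1 nM) phosphorylated ULight-4E-BP1 (100 nM) with 250 μM ATP in HEPES pH 7.4 buffer. After 20 min compound preincubation, reactions were started with 10 mM MgCl2 and run 60 min at 37 °C. EDTA-quenched samples were read by TR-FRET with Eu-anti-P-4E-BP1; IC50 from 9-dose 4-parameter fits.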

[1] = Brain-to-plasma ratio determination in Sprague-Dawley rats; type: in vivo; conditions: rat, male Sprague-Dawley rats, four hours after a single oral dose (3, 4, 5, or 10 mg/kg)
Description: Example B: Brain-to-Plasma Ratio Determination in Sprague-Dawley Rats
The brain-to-plasma ratio (Kp) was determined in male Sprague-Dawley rats (7-9 weeks old) four hours after a single oral dose. Rats were acclimated and given free access to standard rodent chow and water throughout the entire study. Test articles were formulated as a solution at 0.3, 0.4, 0.5, or 1.0 mg/mL in a vehicle comprised of 10:15:75 (v:v:v) dimethylacetamide (DMA):Solutol HS15:water and delivered orally at a rate of 10 mL/kg to three rats to achieve final doses of 3, 4, 5, or 10 mg/kg, respectively. At 4 hours post-dose, blood samples were collected via jugular vein cannula into tubes containing K2EDTA as the anticoagulant and stored on ice. Blood samples were then centrifuged at 4° C. at 6000 rpm for 5 minutes, and the resulting plasma was placed into tubes and stored frozen at −80° C. until analysis. Whole brain samples were also collected at 4 hours post-dose. The weight of each brain was measured and recorded, and samples were immediately stored on dry ice. Brain samples were then transferred to storage at −80° C. until analysis.
Prior to analysis, brain samples were combined with water (4 mL/1 gram of brain) and homogenized. Prior to injection, plasma and brain homogenate samples and standards were prepared for analysis by precipitation with acetonitrile or 1:1 (v:v) methanol:acetonitrile. Samples were then thoroughly mixed, centrifuged at 4000 rpm for 15 minutes, and the resulting supernatant was transferred for analysis. Test article concentrations in plasma and brain homogenate were then determined by LC-MS/MS and quantified against calibration standards prepared to known concentrations in matched blank (analyte-free) biological matrix. The Kp was then determined by dividing the dilution-corrected brain concentration by the plasma concentration from each rat. A brain density of 1 gram/mL was assumed for all calculations.

[2] = tested on: MCF7 adenocarcinoma cell line; assay: Cell proliferation studies in MCF7 cells (ATP-Lite); type: cell-based; conditions: Homo sapiens, 240 h, 10 days incubation, cell viability by ATP-Lite luminescence, read-out: PROLIFERATION_CTG_MCF7 IC50
Procedure, shortened: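 MCF7 cells, seeded at 100 or 200 cells/well, were exposed for 10 days at 37 °C to a 9-point, 3-fold dilution series in quadruplicate, with media exchange and re-dosing on day 5. Viability was read by ATP-Lite luminescence, normalized to background and DMSO, and fitted for IC50.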

Chain of CDK6/Cyclin D1 (Q00534 whole entry): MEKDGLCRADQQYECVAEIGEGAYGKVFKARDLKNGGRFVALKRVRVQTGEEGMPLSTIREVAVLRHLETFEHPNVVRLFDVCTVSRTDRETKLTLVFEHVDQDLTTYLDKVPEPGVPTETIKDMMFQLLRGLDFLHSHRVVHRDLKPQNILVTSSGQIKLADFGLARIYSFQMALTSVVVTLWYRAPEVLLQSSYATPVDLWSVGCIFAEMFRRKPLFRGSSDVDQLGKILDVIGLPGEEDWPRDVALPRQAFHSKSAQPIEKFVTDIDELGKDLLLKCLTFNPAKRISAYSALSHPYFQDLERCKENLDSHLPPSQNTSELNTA
Chain of CDK6/Cyclin D1 (P24385 whole entry partner): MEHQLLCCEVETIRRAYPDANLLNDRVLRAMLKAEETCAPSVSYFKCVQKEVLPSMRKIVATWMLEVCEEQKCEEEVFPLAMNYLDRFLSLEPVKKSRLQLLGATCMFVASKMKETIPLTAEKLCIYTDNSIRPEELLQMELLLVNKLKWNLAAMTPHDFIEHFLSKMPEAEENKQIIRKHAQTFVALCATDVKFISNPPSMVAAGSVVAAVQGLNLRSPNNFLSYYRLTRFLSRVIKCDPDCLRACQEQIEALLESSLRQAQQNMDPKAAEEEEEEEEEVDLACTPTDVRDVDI
Chain of CDK4/Cyclin D1 (P11802 whole entry): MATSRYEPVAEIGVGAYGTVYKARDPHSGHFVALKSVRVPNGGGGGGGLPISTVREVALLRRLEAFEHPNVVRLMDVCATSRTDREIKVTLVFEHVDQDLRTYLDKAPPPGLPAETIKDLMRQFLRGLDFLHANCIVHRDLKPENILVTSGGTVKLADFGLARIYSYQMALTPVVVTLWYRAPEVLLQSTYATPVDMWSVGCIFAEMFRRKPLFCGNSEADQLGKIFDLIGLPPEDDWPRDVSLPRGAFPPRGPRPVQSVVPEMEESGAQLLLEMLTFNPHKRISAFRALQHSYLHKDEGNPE
Chain of CDK4/Cyclin D1 (P24385 whole entry partner): as the sequence (P24385 whole entry partner) above

| IC50 (CDK4/Cyclin D1) | IC50 (CDK6/Cyclin D1) | Kp at 4 h [1] | IC50 [2] | SMILES |
| --- | --- | --- | --- | --- |
| ≤ 20 nM | ≤ 20 nM | 1 to 3 | 20 to 200 nM | CCN1CCC(c2ccc(Nc3ncc(F)c(-c4sc5c(c4C)C(=O)N(C)C54CC4)n3)nc2)C1 (stereo not drawn) [Example 71, 2′-[2-[[5-(1-Ethylpyrrolidin-3-yl)pyridin-2-yl]amino]-5-fluoropyrimidin-4-yl]-3′,5′-dimethylspiro[cyclopropane-1,6′-thieno[2,3-c]pyrrole]-4′-one] |
| ≤ 20 nM | 20 to 200 nM | 1 to 3 | 20 to 200 nM | CCN1CC2(C1)CN(c1ccc(Nc3ncc(F)c(-c4ccc5c(c4)C4(CCCC4)N(C)C5=O)n3)nc1)C2 [Example 78, 6′-(2-((5-(6-Ethyl-2,6-diazaspiro[3.3]heptan-2-yl)pyridin-2-yl)amino)-5-fluoropyrimidin-4-yl)-2′-methylspiro[cyclopentane-1,1′-isoindolin]-3′-one] |

| SMILES | IC50 (CDK4/Cyclin D1) | IC50 (CDK6/Cyclin D1) | Kp at 4 h [1] | IC50 [2] |
| --- | --- | --- | --- | --- |
| CCN1CC2(CC(c3ccc(Nc4ncc(F)c(-c5sc6c(c5C)C(=O)N(C)C65CC5)n4)nc3)C2)C1 [Example 81, 2′-(2-((5-(2-Ethyl-2-azaspiro[3.3]heptan-6-yl)pyridin-2-yl)amino)-5-fluoropyrimidin-4-yl)-3′,5′-dimethylspiro[cyclopropane-1,6′-thieno[2,3-c]pyrrol]-4′(5′H)-one] | ≤ 20 nM | ≤ 20 nM | < 1 | ≤ 20 nM |
